Measurements reported in patent US11702414B2, “Thiadiazole IRAK4 inhibitors” (Gilead Sciences, Inc., priority 2018, dated 2023).
Where two headings read alike, the source gives them in different places.

Legend:
[1] = target: IRAK4 enzyme (Homo sapiens (Human), UniProt Q9NWZ3); assay: IRAK4 Biochemical Assay (TR-FRET, STK1 KinEASE)
Procedure: IRAK4 enzyme (Carna Biosciences, Chuo-ku, Kobe, Japan) activity was measured by detecting phosphorylated peptide substrate formation using an antibody against the phosphorylated peptide substrate. This is a time-resolved fluorescence resonance energy transfer (TR-FRET) immunoassay, based on the STK1 KinEASE Assay (Cisbio, Bedford, Mass.). The assay was designed as a simple two-step, endpoint assay (a 5 μl enzyme reaction followed by 5 μl stop and detect Solution) performed in ProxiPlate-384 Plus plates (Perkin Elmer, Waltham, Mass.). […] Compounds diluted in DMSO were spotted into 384 well plates using a Labcyte® Echo 550 Liquid Handling System prior to addition of IRAK4 enzyme and peptide substrate. Reaction solutions were delivered using a Multi-Flo (Bio-Tek Instruments). The enzyme and peptide solution was incubated with compound for 15 minutes at room temp before the reaction was initiated by the addition of ATP. The standard 5 μl reaction mixture contained 500 μM ATP, 2 μM peptide (STK1 Peptide), 0.75 nM of IRAK4 in reaction buffer (50 mM HEPES, pH 7.0, 0.02% NaN3, 0.01% BSA, 0.1 mM Orthovanadate, 5 mM MgCl2, 0.025% NP-40, 1 mM DTT). After 120 min of incubation at room temperature, 5 μl of Stop and Detect Solution (1:100 Cryptate labeled anti-phosphorylated peptide antibody solution and 125 nM Tracer in a 50 mM HEPES pH 7.0 detection buffer containing sufficient EDTA) was added. The plate was then further incubated for 60 minutes at room temperature and read on Envision 2103 Multilabeled reader (PerkinElmer) with excitation/emission/FRET emission at 340 nm/615 nm/665 nm, respectively. Fluorescence intensities at 615 nm and 665 nm emission wavelengths were expressed as a ratio (665 nm/615 nm). Percentage of inhibition was calculated as below: % Inhibition=100×(RatioSample−Ratio0% Inhibition)/(Ratio100% Inhibition−Ratio0% Inhibition)
The 0% inhibition value comes from control wells lacking inhibitor.

[2] = system: TNFα; assay: IRAK4 Monocyte TNFα Cell Based Assay; set-up: species or system human; details: Homo sapiens, Monocyte, human monocytes
Procedure: IRAK4 Monocyte TNFα Cell Based Assay Procedure:
The cell suspension was then plated at a density of 5,000 cells/well onto black 384 well Greiner clear bottom plates. Plates were pre-spotted with test compounds and serially diluted in DMSO where 40 nL/well were delivered using the Echo 550 acoustic liquid dispenser (Labcyte®) for a final DMSO concentration of 0.1%. Plated cells were treated with compound for 1 hour at 37° C. Cells were then stimulated with 50 pg/ml of LPS (Sigma) excluding outside columns of plate used for unstimulated cell control wells. Cells were incubated for an additional 4 hours at 37° C. Cells were then spun out of the media and 5μl of sample were taken and analyzed for total TNFα content using the TR-FRET Human TNFα detection system (CisBio). This system utilizes two labeled antibodies (cryptate and XL665) that bind to two different epitopes of the TNFα molecule and produce FRET signal proportional to the concentration of TNFα in the sample. Detection antibodies are mixed 50:50 and 5 μL were dispensed into each well. Plates were covered with clear seals and incubated at room temp overnight. […] Percent of control was calculated as follows: % Control=100×(RatioSample−Ratio0% Stimulation)/(Ratio100% Stimulation−Ratio0% Stimulation) where unstimulated cells (0% stimulation) were the negative control and stimulated cells (100% stimulation) were used as the positive control.

[3] = second part of Table 2 (compounds 33-343), unit inferred, read-out: EC50MONO TNF HTRF

IRAK4 enzyme, sequence (Q9NWZ3 whole entry): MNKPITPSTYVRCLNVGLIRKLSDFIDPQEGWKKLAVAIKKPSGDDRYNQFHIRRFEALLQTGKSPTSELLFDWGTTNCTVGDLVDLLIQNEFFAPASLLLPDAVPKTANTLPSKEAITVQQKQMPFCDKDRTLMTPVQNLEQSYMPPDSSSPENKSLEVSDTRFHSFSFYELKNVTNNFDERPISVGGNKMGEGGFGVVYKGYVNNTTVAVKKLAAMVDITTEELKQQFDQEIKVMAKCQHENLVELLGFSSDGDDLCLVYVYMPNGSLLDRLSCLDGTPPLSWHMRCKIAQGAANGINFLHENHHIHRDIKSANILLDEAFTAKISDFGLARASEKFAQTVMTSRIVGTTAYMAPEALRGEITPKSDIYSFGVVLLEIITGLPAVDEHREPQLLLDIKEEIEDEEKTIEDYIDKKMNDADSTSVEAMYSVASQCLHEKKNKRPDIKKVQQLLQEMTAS

| IC50 ([1]; compounds 1-32, read-out: IC50 HTRF) | EC50 ([2]; LPS-stimulated, compounds 1-32, read-out: EC50 TNF) | SMILES | IC50 [1] | EC50 [2, 3] |
| --- | --- | --- | --- | --- |
|  |  | CC(=O)NC12CCC(c3nnc(-c4cnc(-c5ccc6cc(C#N)cnn56)cc4NC4COC4)s3)(C1)C2 [Compound 334, N-(4-(5-(6-(3-cyanopyrrolo[1,2-b]pyridazin-7-yl)-4-(oxetan-3-ylamino)pyridin-3-yl)-1,3,4-thiadiazol-2-yl)bicyclo[2.1.1]hexan-1-yl)acetamide] | 2.41 nM | 98.9 nM |
|  |  | CC(C)(O)C(=O)NC12CCC(c3nnc(-c4cnc(-c5ccc6cc(C#N)cnn56)cc4NC4COC4)s3)(C1)C2 [Compound 335, N-(4-(5-(6-(3-cyanopyrrolo[1,2-b]pyridazin-7-yl)-4-(oxetan-3-ylamino)pyridin-3-yl)-1,3,4-thiadiazol-2-yl)bicyclo[2.1.1]hexan-1-yl)-2-hydroxy-2-methylpropanamide] | 0.64 nM | 48.9 nM |
| < 1 nM | 211 nM | CC(C)Nc1cc(-c2ccc3cc(C#N)cnn23)ncc1-c1nnc(C2CCOCC2)s1 [Example 32, 7-(4-(isopropylamino)-5-(5-(tetrahydro-2H-pyran-4-yl)-1,3,4-thiadiazol-2-yl)pyridin-2-yl)pyrrolo[1,2-b]pyridazine-3-carbonitrile] |  |  |
|  |  | CC(=O)NC[C@H]1CCCN1C(=O)c1nnc(-c2cnc(-c3ccc4cc(C#N)cnn34)cc2NC(C)C)s1 [Example 42, (R)-N-((1-(5-(6-(3-cyanopyrrolo[1,2-b]pyridazin-7-yl)-4-(isopropylamino)pyridin-3-yl)-1,3,4-thiadiazole-2-carbonyl)pyrrolidin-2-yl)methyl)acetamide] | 1.5 nM | 35.7 nM |
|  |  | COC(=O)N[C@H]1CCN(C(=O)c2nnc(-c3cnc(-c4ccc5cc(C#N)cnn45)cc3NC(C)C)s2)C1 [Example 43, methyl (S)-(1-(5-(6-(3-cyanopyrrolo[1,2-b]pyridazin-7-yl)-4-(isopropylamino)pyridin-3-yl)-1,3,4-thiadiazole-2-carbonyl)pyrrolidin-3-yl)carbamate] | 0.72 nM | 21.9 nM |
|  |  | CC(C)Nc1cc(-c2ccc3cc(C#N)cnn23)ncc1-c1nnc(C(=O)N2CC[C@@H](NC(=O)C3CC3)C2)s1 [Example 47, (R)-N-(1-(5-(6-(3-cyanopyrrolo[1,2-b]pyridazin-7-yl)-4-(isopropylamino)pyridin-3-yl)-1,3,4-thiadiazole-2-carbonyl)pyrrolidin-3-yl)cyclopropanecarboxamide] | 1.42 nM | 5680 nM |
|  |  | CC(=O)N1CCC2(CC1)CN(c1nnc(-c3cnc(-c4ccc5cc(C#N)cnn45)cc3NC(C)C)s1)C2 [Example 67, 7-(5-(5-(7-acetyl-2,7-diazaspiro[3.5]nonan-2-yl)-1,3,4-thiadiazol-2-yl)-4-(isopropylamino)pyridin-2-yl)pyrrolo[1,2-b]pyridazine-3-carbonitrile] | 0.59 nM | 10.4 nM |
|  |  | CC(=O)N[C@@H]1C[C@H]2C[C@@H]1CN2c1nnc(-c2cnc(-c3ccc4cc(C#N)cnn34)cc2NC(C)C)s1 [Example 73, N-((1R,4R,5R)-2-(5-(6-(3-cyanopyrrolo[1,2-b]pyridazin-7-yl)-4-(isopropylamino)pyridin-3-yl)-1,3,4-thiadiazol-2-yl)-2-azabicyclo[2.2.1]heptan-5-yl)acetamide] | 0.61 nM | 64.1 nM |
|  |  | CC(=O)N1CCC2(CC1)CN(c1nnc(-c3cnc(-c4ccc5cc(C#N)cnn45)cc3NC3COC3)s1)C2 [Example 75, 7-(5-(5-(7-acetyl-2,7-diazaspiro[3.5]nonan-2-yl)-1,3,4-thiadiazol-2-yl)-4-(oxetan-3-ylamino)pyridin-2-yl)pyrrolo[1,2-b]pyridazine-3-carbonitrile] | 0.24 nM | 3.2 nM |
|  |  | CC(=O)N1CCC2(CC1)CN(c1nnc(-c3cnc(-c4ccc5cc(C#N)cnn45)cc3NC3CCOCC3)s1)C2 [Example 76, 7-(5-(5-(7-acetyl-2,7-diazaspiro[3.5]nonan-2-yl)-1,3,4-thiadiazol-2-yl)-4-((tetrahydro-2H-pyran-4-yl)amino)pyridin-2-yl)pyrrolo[1,2-b]pyridazine-3-carbonitrile] | 0.85 nM | 4.4 nM |
|  |  | CC(=O)NC1CCC2(CC1)CN(c1nnc(-c3cnc(-c4ccc5cc(C#N)cnn45)cc3N[C@H](C)C#N)s1)C2 [Example 77, (R)-N-(2-(5-(4-((1-cyanoethyl)amino)-6-(3-cyanopyrrolo[1,2-b]pyridazin-7-yl)pyridin-3-yl)-1,3,4-thiadiazol-2-yl)-2-azaspiro[3.5]nonan-7-yl)acetamide] | 1.06 nM | 3.9 nM |
|  |  | CC(=O)NC1CCC2(CC1)CN(c1nnc(-c3cnc(-c4ccc5cc(C#N)cnn45)cc3NC3COC3)s1)C2 [Example 78, N-(2-(5-(6-(3-cyanopyrrolo[1,2-b]pyridazin-7-yl)-4-(oxetan-3-ylamino)pyridin-3-yl)-1,3,4-thiadiazol-2-yl)-2-azaspiro[3.5]nonan-7-yl)acetamide] | 0.85 nM | 8.9 nM |
|  |  | CC(C)Nc1cc(-c2ccc3cc(C#N)cnn23)ncc1-c1nnc(C(C)(C)O)s1 [Example 80, 7-(5-(5-(2-hydroxypropan-2-yl)-1,3,4-thiadiazol-2-yl)-4-(isopropylamino)pyridin-2-yl)pyrrolo[1,2-b]pyridazine-3-carbonitrile] | 1.16 nM | 114 nM |
|  |  | CC(C)Nc1cc(-c2ccc3cc(C#N)cnn23)ncc1-c1nnc(N2CC3(CCC(C)(O)CC3)C2)s1 [Example 82, 7-(5-(5-(7-hydroxy-7-methyl-2-azaspiro[3.5]nonan-2-yl)-1,3,4-thiadiazol-2-yl)-4-(isopropylamino)pyridin-2-yl)pyrrolo[1,2-b]pyridazine-3-carbonitrile] | 1.18 nM | 23.1 nM |
|  |  | CC(=O)N[C@H]1CC[C@@H](c2nnc(-c3cnc(-c4ccc5cc(C#N)cnn45)cc3NC(C)C)s2)OC1 [Example 84, N-((3S,6S)-6-(5-(6-(3-cyanopyrrolo[1,2-b]pyridazin-7-yl)-4-(isopropylamino)pyridin-3-yl)-1,3,4-thiadiazol-2-yl)tetrahydro-2H-pyran-3-yl)acetamide] | 0.47 nM | 8.6 nM |
|  |  | CC(=O)NC1CCC2(CC1)CN(c1nnc(-c3cnc(-c4ccc5cc(C#N)cnn45)cc3NC3(C)COC3)s1)C2 [Example 99, N-(2-(5-(6-(3-cyanopyrrolo[1,2-b]pyridazin-7-yl)-4-((3-methyloxetan-3-yl)amino)pyridin-3-yl)-1,3,4-thiadiazol-2-yl)-2-azaspiro[3.5]nonan-7-yl)acetamide] | 0.63 nM | 5.8 nM |
|  |  | CC(C)Nc1cc(-c2ccc3cc(C#N)cnn23)ncc1-c1nnc(C2CCN(C3COC3)CC2)s1 [Example 138, 7-(4-(isopropylamino)-5-(5-(1-(oxetan-3-yl)piperidin-4-yl)-1,3,4-thiadiazol-2-yl)pyridin-2-yl)pyrrolo[1,2-b]pyridazine-3-carbonitrile] | 0.61 nM | 15 nM |
|  |  | CC(C)Nc1cc(-c2ccc3cc(C#N)cnn23)ncc1-c1nnc(N2CC3CCC(C2)C3(O)C(F)(F)F)s1 (stereo not drawn) [Example 159, 7-(5-(5-(8-hydroxy-8-(trifluoromethyl)-3-azabicyclo[3.2.1]octan-3-yl)-1,3,4-thiadiazol-2-yl)-4-(isopropylamino)pyridin-2-yl)pyrrolo[1,2-b]pyridazine-3-carbonitrile] | 6.38 nM | 25.7 nM |
